Experimental data published in US20170050957A1, “4-AMINO-6-(HETEROCYCLIC)PICOLINATES AND 6-AMINO-2-(HETEROCYCLIC)PYRIMIDINE-4-CARBOXYLATES AND THEIR USE AS HERBICIDES” (Dow AgroSciences LLC, priority 2013, published 2017).
Like-named read-outs stand apart in the source and are kept apart here.

Tests used:
[1] = test system: Key Broadleaf Weed and Crop Species; experiment: Post-emergent Test II herbicidal activity (Table 15); format: in vivo; details: post-emergence, 336 h, 14 d; for pest or weed control at 35 g/ha: 35 g ai/ha; for pest or weed control at 70 g/ha: 70 g ai/ha; for pest or weed control at 140 g/ha: 140 g ai/ha
Summary of the method: (§1)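 Greenhouse-grown seedlings at first/second true leaf receive a track spray at 187 L/ha, using a highest rate plus two-fold serial dilutions down to 1/16×. Watering is by subirrigation to avoid wash-off. Percent injury (0-100) is judged by eye at 14 d against untreated plants.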

[2] = test system: Key Grass and Sedge Weeds as well as Grass Crops; experiment: Post-emergent Test II herbicidal activity (Table 16); format: in vivo; details: post-emergence, 336 h, 14 d; for pest or weed control at 35 g/ha: 35 g ai/ha; for pest or weed control at 70 g/ha: 70 g ai/ha; for pest or weed control at 140 g/ha: 140 g ai/ha
Summary of the method: as §1

[3] = Abutilon theophrasti, velvetleaf (Abutilon theophrasti), read-out: Visual Growth Reduction (%) 14 Days After Application, ABUTH
[4] = Amaranthus retroflexus, redroot pigweed (Amaranthus retroflexus), read-out: Visual Growth Reduction (%) 14 Days After Application, AMARE
[5] = Brassica napus, oilseed rape, canola (Brassica napus), read-out: Visual Growth Reduction (%) 14 Days After Application, BRSNN
[6] = Chenopodium album, lambsquarters (Chenopodium album), read-out: Visual Growth Reduction (%) 14 Days After Application, CHEAL
[7] = Euphorbia heterophylla, wild poinsettia (Euphorbia heterophylla), read-out: Visual Growth Reduction (%) 14 Days After Application, EPHHL
[8] = Helianthus annuus, sunflower (Helianthus annuus), read-out: Visual Growth Reduction (%) 14 Days After Application, HELAN
[9] = Cyperus esculentus, yellow nutsedge (Cyperus esculentus), read-out: Visual Growth Reduction (%) 14 Days After Application, CYPES
[10] = Echinochloa crus-galli, barnyardgrass (Echinochloa crus-galli), read-out: Visual Growth Reduction (%) 14 Days After Application, ECHCG
[11] = Oryza sativa, rice (Oryza sativa), read-out: Visual Growth Reduction (%) 14 Days After Application, ORYSA
[12] = Setaria faberi, giant foxtail (Setaria faberi), read-out: Visual Growth Reduction (%) 14 Days After Application, SETFA
[13] = Triticum aestivum, wheat, spring (Triticum aestivum), read-out: Visual Growth Reduction (%) 14 Days After Application, TRZAS
[14] = Zea mays, maize, corn (Zea mays), read-out: Visual Growth Reduction (%) 14 Days After Application, ZEAMX

| Compound | pest or weed control at 35 g/ha [1, 3] [%] | pest or weed control at 70 g/ha [1, 3] [%] | pest or weed control at 140 g/ha [1, 3] [%] | pest or weed control at 35 g/ha [1, 4] [%] | pest or weed control at 70 g/ha [1, 4] [%] | pest or weed control at 140 g/ha [1, 4] [%] | pest or weed control at 35 g/ha [1, 5] [%] | pest or weed control at 70 g/ha [1, 5] [%] | pest or weed control at 140 g/ha [1, 5] [%] | pest or weed control at 35 g/ha [1, 6] [%] | pest or weed control at 70 g/ha [1, 6] [%] | pest or weed control at 140 g/ha [1, 6] [%] | pest or weed control at 35 g/ha [1, 7] [%] | pest or weed control at 70 g/ha [1, 7] [%] | pest or weed control at 140 g/ha [1, 7] [%] | pest or weed control at 35 g/ha [1, 8] [%] | pest or weed control at 70 g/ha [1, 8] [%] | pest or weed control at 140 g/ha [1, 8] [%] | pest or weed control at 35 g/ha [2, 9] [%] | pest or weed control at 70 g/ha [2, 9] [%] | other results |
| --- | --- | --- | --- | --- | --- | --- | --- | --- | --- | --- | --- | --- | --- | --- | --- | --- | --- | --- | --- | --- | --- |
| COC(=O)c1nc(-c2ccc3cc[nH]c3c2F)c(Cl)c(N)c1Cl [Compound 1.07] | 0 to 29 | 0 to 29 | 0 to 29 | 85 to 94 | 95 to 100 | 95 to 100 | 0 to 29 | 0 to 29 | 0 to 29 | 85 to 94 | 85 to 94 | 85 to 94 | 60 to 74 | 60 to 74 | 60 to 74 | 95 to 100 | 95 to 100 | 95 to 100 | 0 to 29 | 0 to 29 | pest or weed control at 140 g/ha [2, 9]: 0 to 29%; pest or weed control at 35 g/ha [2, 10]: 0 to 29%; pest or weed control at 70 g/ha [2, 10]: 0 to 29%; pest or weed control at 140 g/ha [2, 10]: 0 to 29%; pest or weed control at 35 g/ha [2, 11]: 0 to 29%; pest or weed control at 70 g/ha [2, 11]: 0 to 29%; pest or weed control at 140 g/ha [2, 11]: 0 to 29%; pest or weed control at 35 g/ha [2, 12]: 60 to 74%; pest or weed control at 70 g/ha [2, 12]: 75 to 84%; pest or weed control at 140 g/ha [2, 12]: 75 to 84%; pest or weed control at 35 g/ha [2, 13]: 0 to 29%; pest or weed control at 70 g/ha [2, 13]: 0 to 29%; pest or weed control at 140 g/ha [2, 13]: 0 to 29%; pest or weed control at 35 g/ha [2, 14]: 0 to 29%; pest or weed control at 70 g/ha [2, 14]: 0 to 29%; pest or weed control at 140 g/ha [2, 14]: 0 to 29% |
| COC(=O)c1nc(-c2cc3[nH]ccc3cc2F)c(F)c(N)c1Cl [Compound 1.13] | 0 to 29 | 0 to 29 | 0 to 29 | 0 to 29 | 30 to 44 | 30 to 44 | 0 to 29 | 0 to 29 | 30 to 44 | 60 to 74 | 75 to 84 | 85 to 94 | 0 to 29 | 0 to 29 | 30 to 44 | 45 to 59 | 60 to 74 | 60 to 74 | 0 to 29 | 0 to 29 | pest or weed control at 140 g/ha [2, 9]: 0 to 29%; pest or weed control at 35 g/ha [2, 10]: 0 to 29%; pest or weed control at 70 g/ha [2, 10]: 0 to 29%; pest or weed control at 140 g/ha [2, 10]: 0 to 29%; pest or weed control at 35 g/ha [2, 11]: 0 to 29%; pest or weed control at 70 g/ha [2, 11]: 0 to 29%; pest or weed control at 140 g/ha [2, 11]: 0 to 29%; pest or weed control at 35 g/ha [2, 12]: 0 to 29%; pest or weed control at 70 g/ha [2, 12]: 0 to 29%; pest or weed control at 140 g/ha [2, 12]: 0 to 29%; pest or weed control at 35 g/ha [2, 13]: 0 to 29%; pest or weed control at 70 g/ha [2, 13]: 0 to 29%; pest or weed control at 140 g/ha [2, 13]: 0 to 29%; pest or weed control at 35 g/ha [2, 14]: 0 to 29%; pest or weed control at 70 g/ha [2, 14]: 0 to 29%; pest or weed control at 140 g/ha [2, 14]: 0 to 29% |
| Nc1c(F)c(-c2cc3[nH]ccc3cc2F)nc(C(=O)O)c1Cl [Compound 1.14] | 0 to 29 | 0 to 29 | 0 to 29 | 75 to 84 | 85 to 94 | 85 to 94 | 45 to 59 | 60 to 74 | 75 to 84 | 60 to 74 | 60 to 74 | 75 to 84 | 0 to 29 | 0 to 29 | 60 to 74 | 60 to 74 | 75 to 84 | 75 to 84 | 0 to 29 | 0 to 29 | pest or weed control at 140 g/ha [2, 9]: 0 to 29%; pest or weed control at 35 g/ha [2, 10]: 0 to 29%; pest or weed control at 70 g/ha [2, 10]: 0 to 29%; pest or weed control at 140 g/ha [2, 10]: 0 to 29%; pest or weed control at 35 g/ha [2, 11]: 0 to 29%; pest or weed control at 70 g/ha [2, 11]: 0 to 29%; pest or weed control at 140 g/ha [2, 11]: 0 to 29%; pest or weed control at 35 g/ha [2, 12]: 0 to 29%; pest or weed control at 70 g/ha [2, 12]: 0 to 29%; pest or weed control at 140 g/ha [2, 12]: 0 to 29%; pest or weed control at 35 g/ha [2, 13]: 0 to 29%; pest or weed control at 70 g/ha [2, 13]: 0 to 29%; pest or weed control at 140 g/ha [2, 13]: 0 to 29%; pest or weed control at 35 g/ha [2, 14]: 0 to 29%; pest or weed control at 70 g/ha [2, 14]: 0 to 29%; pest or weed control at 140 g/ha [2, 14]: 0 to 29% |
